The supplement of paper PMC5908809

Key:
Assay in all cases: relative IC50 (inflection point of fitted viability curve, relative to fitted max inhibition); higher = less sensitive
Conditions in all cases: 72 h
KAI3 (IL-2 2.5 ng/mL) = test system: KAI3 (IL-2 2.5 ng/mL)
Description: (§1)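 Drug sensitivity and resistance testing: 5 concentrations over a 10,000-fold range, 72 h at 37 °C, viability by CellTiter-Glo normalised to DMSO and benzethonium chloride controls. IC50 is the inflection point of a logistic fit (min fixed at 0, max fitted), so it is relative to the fitted maximal inhibition. Kept only where fitted max inhibition is at least 50%.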

[1] = test system: normal primary NK cells, pool 3 (3 donors) (IL-2 2.5 ng/mL)
Description: as §1

IMC-1 (IL-2 20 ng/mL) = test system: IMC-1 (IL-2 20 ng/mL)
Description: as §1

NKL (IL-2 2.5 ng/mL) = test system: NKL (IL-2 2.5 ng/mL)
Description: as §1

[2] = test system: normal primary NK cells, pool 2 (3 donors) (IL-2 2.5 ng/mL)
Description: as §1

SNK-6 (IL-2 2.5 ng/mL) = test system: SNK-6 (IL-2 2.5 ng/mL)
Description: as §1

KHYG-1 (IL-2 2.5 ng/mL) = test system: KHYG-1 (IL-2 2.5 ng/mL)
Description: as §1

[3] = test system: normal primary NK cells, pool 1 (3 donors), resting (IL-2 0 ng/mL)
Description: as §1

YT (IL-2 2.5 ng/mL) = test system: YT (IL-2 2.5 ng/mL)
Description: as §1

[4] = test system: normal primary NK cells, pool 1 (3 donors) (IL-2 2.5 ng/mL)
Description: as §1

DERL-7 (IL-2 2.5 ng/mL) = test system: DERL-7 (IL-2 2.5 ng/mL)
Description: as §1

NK-92 (IL-2 2.5 ng/mL) = test system: NK-92 (IL-2 2.5 ng/mL)
Description: as §1

NK-YS (IL-2 2.5 ng/mL) = test system: NK-YS (IL-2 2.5 ng/mL)
Description: as §1

Row | Compound | relative IC50 (KAI3 (IL-2 2.5 ng/mL)) | relative IC50 [1] | relative IC50 (IMC-1 (IL-2 20 ng/mL)) | relative IC50 (NKL (IL-2 2.5 ng/mL)) | relative IC50 [2] | relative IC50 (SNK-6 (IL-2 2.5 ng/mL)) | relative IC50 (KHYG-1 (IL-2 2.5 ng/mL)) | relative IC50 [3] | relative IC50 (YT (IL-2 2.5 ng/mL)) | relative IC50 [4] | relative IC50 (DERL-7 (IL-2 2.5 ng/mL)) | relative IC50 (NK-92 (IL-2 2.5 ng/mL)) | relative IC50 (NK-YS (IL-2 2.5 ng/mL))
1 | CCCCCCCCc1ccc(CCC(N)(CO)CO)cc1 [Fingolimod] | 1670 nM | 3410 nM | 2310 nM | 1400 nM | 1930 nM | 2060 nM | 2290 nM | 3330 nM | 2450 nM | 2450 nM | 2030 nM | 3260 nM | 2280 nM
2 | CN(C)CCN1C(=O)c2cccc3cc(N)cc(c23)C1=O [Amonafide] | 1280 nM | 2410 nM | 1940 nM | 1240 nM | 2650 nM | 1700 nM | 1970 nM | 2250 nM | 2140 nM | 3500 nM | 1760 nM | 1400 nM | 1380 nM
3 | CC/C(=C(\c1ccc(O)cc1)c1ccc(OCCN(C)C)cc1)c1ccccc1 [4-hydroxytamoxifen] | 2640 nM | – | 2130 nM | 2700 nM | 2700 nM | 3890 nM | 1290 nM | 3750 nM | 2330 nM | 3340 nM | 1690 nM | 2850 nM | 2250 nM
4 | CC1(COc2ccc3c(c2)ncn3-c2ccc3cccc(N4CCC(N)CC4)c3n2)COC1 [Crenolanib] | 2250 nM | 1640 nM | 2710 nM | 633 nM | 1350 nM | 429 nM | 1820 nM | 3660 nM | 1600 nM | 1640 nM | 984 nM | 998 nM | 1890 nM
5 | COC[C@H](NC(=O)c1cnc(C)s1)C(=O)N[C@@H](COC)C(=O)N[C@@H](Cc1ccccc1)C(=O)[C@@]1(C)CO1 [Oprozomib] | 24.1 nM | 24.8 nM | 76.8 nM | 52.5 nM | 17.9 nM | 50.1 nM | 48 nM | 19.2 nM | 49.1 nM | 34.7 nM | 10.5 nM | 32.4 nM | 27.7 nM
6 | Cc1ccc(-n2nc(C(C)(C)C)cc2NC(=O)Nc2ccc(OCCN3CCOCC3)c3ccccc23)cc1 [Doramapimod] | 362 nM | 2980 nM | – | 370 nM | 3230 nM | – | 2140 nM | 2920 nM | – | 3690 nM | – | 1910 nM | 1300 nM
7 | CC(=O)OC[C@H]1O[C@@H]([S-])[C@H](OC(C)=O)[C@@H](OC(C)=O)[C@@H]1OC(C)=O.CCP(CC)CC.[Au+] [Auranofin] | 859 nM | 78.4 nM | 761 nM | 241 nM | 102 nM | 319 nM | 507 nM | 26.1 nM | 824 nM | 53.6 nM | 274 nM | 791 nM | 551 nM
8 | C[C@@H]1CN(CC(=O)Nc2ccc3c(c2)Cc2cccc(-c4cc(=O)cc(N5CCOCC5)o4)c2S3)C[C@H](C)O1 | 4210 nM | 8100 nM | 7360 nM | 3200 nM | 5660 nM | 6050 nM | 4430 nM | 3480 nM | 6110 nM | 5660 nM | 4940 nM | 4490 nM | 5880 nM
9 | CS(=O)(=O)N1CCN(Cc2cc3nc(-c4cccc5[nH]ncc45)nc(N4CCOCC4)c3s2)CC1 [Pictilisib] | 1490 nM | – | > 10000 nM | 821 nM | 1950 nM | – | 2010 nM | 694 nM | 1260 nM | 1120 nM | 472 nM | 421 nM | 1180 nM
10 | C[C@@H]1C[C@H]2[C@@H]3CCC4=CC(=O)C=C[C@]4(C)[C@@]3(F)[C@@H](O)C[C@]2(C)[C@@]1(O)C(=O)CO [Dexamethasone] | – | 28.8 nM | > 10000 nM | 7.41 nM | 11.8 nM | – | 89.3 nM | 4.64 nM | – | 14.1 nM | 8.07 nM | – | –
11 | CCN(CC)CCOc1ccc(C(=C(Cl)c2ccccc2)c2ccccc2)cc1 [Clomifene] | 1840 nM | 1540 nM | 2410 nM | 2280 nM | 1810 nM | 1730 nM | 2490 nM | 2170 nM | 3030 nM | 2560 nM | 1580 nM | 1710 nM | 2280 nM
12 | CN[C@@H](C)C(=O)N[C@H]1CN(C(=O)CC(C)C)CC[C@H]2CC[C@@H](C(=O)NC(c3ccccc3)c3ccccc3)N2C1=O [AT-406] | 1920 nM | 1690 nM | – | – | 1410 nM | – | 1450 nM | 1250 nM | – | 1230 nM | – | – | –
13 | O=C(CCCCCCNC(=O)c1cnc(N(c2ccccc2)c2ccccc2)nc1)NO [Rocilinostat] | 823 nM | 2470 nM | 2490 nM | 814 nM | 1550 nM | 1350 nM | 1050 nM | 485 nM | 1810 nM | 1100 nM | 1990 nM | 1210 nM | 1620 nM
14 | CCc1cnn2c(NCc3ccc[n+]([O-])c3)cc(N3CCCC[C@H]3CCO)nc12 [Dinaciclib] | 8.92 nM | 6.24 nM | 11 nM | 4.24 nM | 3.72 nM | 4.4 nM | 11.3 nM | 16.4 nM | 3.6 nM | 10.9 nM | 13.7 nM | 7.4 nM | 4.68 nM
15 | COc1cc(OC)c(/C=C/S(=O)(=O)Cc2ccc(OC)c(NCC(=O)O)c2)c(OC)c1 [Rigosertib] | 48.5 nM | – | 37.5 nM | 43 nM | – | 53.5 nM | 35.8 nM | 840 nM | 46.9 nM | – | 36.7 nM | 53.6 nM | 40.4 nM
16 | O=C(CCCCCCC(=O)Nc1ccc([C@H]2O[C@@H](CSc3nc(-c4ccccc4)c(-c4ccccc4)o3)C[C@@H](c3ccc(CO)cc3)O2)cc1)NO [Tubacin] | 2070 nM | – | 2650 nM | 1330 nM | – | 1800 nM | 3090 nM | 3800 nM | 2630 nM | – | 1620 nM | 1660 nM | 2830 nM
17 | COc1nc(N)nc2c1ncn2[C@@H]1O[C@H](CO)[C@@H](O)[C@@H]1O [Nelarabine] | 292 nM | 200 nM | > 10000 nM | 1810 nM | 322 nM | – | – | 38.6 nM | – | 406 nM | – | – | –
18 | COc1cc([C@@H]2c3cc4c(cc3[C@@H](O[C@@H]3O[C@@H]5CO[C@@H](C)O[C@H]5[C@H](O)[C@H]3O)[C@H]3COC(=O)[C@H]23)OCO4)cc(OC)c1O [Etoposide] | 73.2 nM | – | 137 nM | 47.3 nM | 1920 nM | 615 nM | 435 nM | 743 nM | 1080 nM | 1830 nM | 134 nM | 646 nM | 161 nM
